In ChEMBL document CHEMBL5143695, “Benzobis(imidazole) derivatives as STAT3 signal inhibitors with antitumor activity” (Bioorg Med Chem, 2022):
Active and inactive are the calls of the source. The rule behind the calls is not given here.

How the values were obtained:
[1] = molecular target: Signal transducer and activator of transcription 3 (Homo sapiens) (UniProt P40763); assay: Inhibition of STAT3 nuclear translocation in human HepG2 cells assessed as decrease in nuclear STAT3 level at 5 to 10 microM incubated overnight by immunofluorescence analysis; assay type: cell-based; details: dose 5-10 µM
Sequence of Signal transducer and activator of transcription 3 (Homo sapiens) (P40763 whole entry): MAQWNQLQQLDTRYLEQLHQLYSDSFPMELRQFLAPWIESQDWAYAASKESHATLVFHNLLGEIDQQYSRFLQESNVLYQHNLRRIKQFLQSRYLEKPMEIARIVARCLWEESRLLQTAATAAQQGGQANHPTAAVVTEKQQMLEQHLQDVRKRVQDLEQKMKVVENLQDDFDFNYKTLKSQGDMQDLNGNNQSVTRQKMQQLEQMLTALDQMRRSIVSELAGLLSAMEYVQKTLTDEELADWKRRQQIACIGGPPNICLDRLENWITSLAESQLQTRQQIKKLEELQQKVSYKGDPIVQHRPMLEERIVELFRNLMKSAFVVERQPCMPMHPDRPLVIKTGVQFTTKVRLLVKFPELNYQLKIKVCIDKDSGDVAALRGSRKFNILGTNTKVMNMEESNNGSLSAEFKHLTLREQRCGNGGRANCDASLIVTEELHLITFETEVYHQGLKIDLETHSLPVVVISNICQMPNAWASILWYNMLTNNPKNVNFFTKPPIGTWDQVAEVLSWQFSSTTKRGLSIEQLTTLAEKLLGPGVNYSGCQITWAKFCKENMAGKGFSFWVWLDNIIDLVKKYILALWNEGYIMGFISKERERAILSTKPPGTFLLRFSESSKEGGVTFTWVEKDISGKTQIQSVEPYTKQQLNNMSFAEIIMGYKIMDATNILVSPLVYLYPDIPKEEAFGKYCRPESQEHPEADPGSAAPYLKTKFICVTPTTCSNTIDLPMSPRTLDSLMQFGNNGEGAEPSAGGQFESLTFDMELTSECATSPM

ECa-109 cell line [2] = assay: Induction of apoptosis in human EC109 cells assessed as downregulation of cyclin D1 protein expression by Western blotting analysis; assay type: functional, cell-based; details: dose 2.5-20 µM, DDE = dose-dependent effect
ECa-109 cell line [3] = assay: Induction of apoptosis in human EC109 cells assessed as late apoptotic cells at 20 uM incubated for 48 hrs by Annexin V/PI staining based flow cytometry method (reference value: 6.17%); assay type: functional
HepG2 [4] = assay: Induction of apoptosis in human HepG2 cells assessed as late apoptotic cells at 5 uM incubated for 48 hrs by Annexin V/PI staining based flow cytometry method (reference value: 3.64%); assay type: functional
HepG2 [5] = assay: Induction of cell cycle arrest in human HepG2 cells assessed as downregulation of cyclin D1 protein expression by Western blotting analysis; assay type: functional, cell-based; details: dose 2.5-20 µM, DDE = dose-dependent effect
[6] = Toxicity in BALB/c athymic nude mouse xenografted with human HepG2 cells assessed as effect on body weight at 20 to 40 mg/kg, ip administered daily for 24 days; assay type: organism-based; details: in vivo, 576 h, dose 20-40 mg/kg, time 24 day
[7] = Inhibition of IL-6/JAK/STAT3 signalling pathway in HEK-blue IL-6 cells incubated for 16 hrs by SEAP reporter gene based QUANTI- blue assay; assay type: cell-based; details: Homo sapiens, HEK-Blue IL-6, 16 h
HepG2 [8] = assay: Induction of cell cycle arrest in human HepG2 cells assessed as decrease in cells at S phase incubated for 24 hrs by flow cytometric analysis (reference value: 23.01%); assay type: functional; set-up: scale not given: the % may be the effect or the level left
HepG2 [9] = assay: Induction of apoptosis in human HepG2 cells assessed as late apoptotic cells at 10 uM incubated for 48 hrs by Annexin V/PI staining based flow cytometry method (reference value: 3.64%); assay type: functional
ECa-109 cell line [10] = assay: Induction of apoptosis in human EC109 cells assessed as necrotic cells at 10 uM incubated for 48 hrs by Annexin V/PI staining based flow cytometry method (reference value: 0.73%); assay type: functional
ECa-109 cell line [11] = assay: Induction of cell cycle arrest in human EC109 cells assessed as decrease in cells at S phase incubated for 24 hrs by flow cytometric analysis (reference value: 36.08%); assay type: functional; set-up: scale not given: the % may be the effect or the level left
ECa-109 cell line [12] = assay: Induction of apoptosis in human EC109 cells assessed as viable cells at 20 uM incubated for 48 hrs by Annexin V/PI staining based flow cytometry method (reference value: 91.7%); assay type: functional; details: read-out: Activity
[13] = molecular target: Signal transducer and activator of transcription 3 (Homo sapiens) (UniProt P40763); assay: Binding affinity to STAT3 (unknown origin) expressed in Escherichia coli BL21 (DE3) assessed as thermal stability by measuring STAT3 accumulation at 55 to 80 degree C at 100 uM incubated for 30 mins by thermal shift assay
ECa-109 cell line [14] = assay: Induction of apoptosis in human EC109 cells assessed as early apoptotic cells at 20 uM incubated for 48 hrs by Annexin V/PI staining based flow cytometry method (reference value: 1.36%); assay type: functional
HepG2 [15] = assay: Induction of apoptosis in human HepG2 cells assessed as downregulation of cyclin D1 protein expression by Western blotting analysis; assay type: functional, cell-based; details: dose 2.5-20 µM, DDE = dose-dependent effect
ECa-109 cell line [16] = assay: Induction of apoptosis in human EC109 cells assessed as late apoptotic cells at 5 uM incubated for 48 hrs by Annexin V/PI staining based flow cytometry method (reference value: 6.17%); assay type: functional
ECa-109 cell line [17] = assay: Induction of cell cycle arrest in human EC109 cells assessed as downregulation of cyclin D1 protein expression by Western blotting analysis; assay type: functional, cell-based; details: dose 2.5-20 µM, DDE = dose-dependent effect
ECa-109 cell line [18] = assay: Induction of apoptosis in human EC109 cells assessed as early apoptotic cells at 5 uM incubated for 48 hrs by Annexin V/PI staining based flow cytometry method (reference value: 1.36%); assay type: functional
HepG2 [19] = assay: Induction of apoptosis in human HepG2 cells assessed as viable cells at 10 uM incubated for 48 hrs by Annexin V/PI staining based flow cytometry method (reference value: 92.5%); assay type: functional; details: read-out: Activity
[20] = molecular target: Signal transducer and activator of transcription 3 (Homo sapiens) (UniProt P40763); assay: Inhibition of STAT3 dimerization in human HepG2 cells assessed as decrease in STAT3 dimer formation at 5 to 10 uM incubated for 24 hrs by SDS-PAGE based DSS crosslink assay; assay type: cell-based; details: dose 5-10 µM
HepG2 [21] = assay: Induction of cell cycle arrest in human HepG2 cells assessed as accumulation of cells at G0/G1 phase incubated for 24 hrs by flow cytometric analysis (reference value: 66.65%); assay type: functional
ECa-109 cell line [22] = assay: Induction of apoptosis in human EC109 cells assessed as viable cells at 5 uM incubated for 48 hrs by Annexin V/PI staining based flow cytometry method (reference value: 91.7%); assay type: functional; details: read-out: Activity
HepG2 [23] = assay: Induction of apoptosis in human HepG2 cells assessed as early apoptotic cells at 20 uM incubated for 48 hrs by Annexin V/PI staining based flow cytometry method (reference value: 3.31%); assay type: functional
HepG2 [24] = assay: Antitumor activity against human HepG2 cells xenografted in BALB/c athymic nude mouse assessed as tumor growth inhibition at 40 mg/kg, ip administered daily for 24 days relative to control; assay type: functional; details: HepG2, 576 h, time 24 day, read-out: TGI
HepG2 [25] = assay: Antitumor activity against human HepG2 cells assessed as reduction in cell viability incubated for 72 hrs by MTT assay; assay type: functional, cell-based; details: HepG2, 72 h
HepG2 [26] = assay: Induction of apoptosis in human HepG2 cells assessed as viable cells at 5 uM incubated for 48 hrs by Annexin V/PI staining based flow cytometry method (reference value: 92.5%); assay type: functional; details: read-out: Activity
HepG2 [27] = assay: Induction of apoptosis in human HepG2 cells assessed as late apoptotic cells at 20 uM incubated for 48 hrs by Annexin V/PI staining based flow cytometry method (reference value: 3.64%); assay type: functional
HepG2 [28] = assay: Induction of apoptosis in human HepG2 cells assessed as early apoptotic cells at 10 uM incubated for 48 hrs by Annexin V/PI staining based flow cytometry method (reference value: 3.31%); assay type: functional
HepG2 [29] = assay: Induction of apoptosis in human HepG2 cells assessed as downregulation of MCL-1 protein expression by Western blotting analysis; assay type: functional, cell-based; details: dose 2.5-20 µM, DDE = dose-dependent effect
ECa-109 cell line [30] = assay: Induction of apoptosis in human EC109 cells assessed as necrotic cells at 20 uM incubated for 48 hrs by Annexin V/PI staining based flow cytometry method (reference value: 0.73%); assay type: functional
HepG2 [31] = assay: Inhibition of cell migration in human HepG2 cells incubated for 48 hrs by microscopic analysis based wound healing assay; assay type: functional; details: dose 5-10 µM, DDE = dose-dependent effect
HepG2 [32] = assay: Antitumor activity against human HepG2 cells xenografted in BALB/c athymic nude mouse assessed as decrease in Ki67 expression level at 20 to 40 mg/kg, ip administered daily for 24 days; assay type: functional, organism-based; details: dose 20-40 mg/kg, time 24.0 day
ECa-109 cell line [33] = assay: Antitumor activity against human EC109 cells assessed as reduction in cell viability incubated for 72 hrs by MTT assay; assay type: functional, cell-based; details: ECa-109, 72 h
ECa-109 cell line [34] = assay: Induction of apoptosis in human EC109 cells assessed as early apoptotic cells at 10 uM incubated for 48 hrs by Annexin V/PI staining based flow cytometry method (reference value: 1.36%); assay type: functional

In the case of `CCCn1c(-c2cccc(OC)c2)nc2cc3nc(-c4cccc(OC)c4)n(CCC)c3cc21`, the inhibition [1] is reported as “Active”, the Activity (ECa-109 cell line [2]) is reported as “Dde” and the Activity (ECa-109 cell line [3]) is reported as 31.4%. The Activity (HepG2 [4]) was 13.4%, the Activity (HepG2 [5]) was “Dde” and the Activity [6] was “Non-Toxic”. The IC50 [7] was 2.61 µM, the Activity (HepG2 [8]) was 16.55% and the Activity (HepG2 [9]) was 39.4%. The Activity (ECa-109 cell line [10]) was 1.1%, the Activity (ECa-109 cell line [11]) was 28.53% and the viability at 20 µM (ECa-109 cell line [12]) was 46.8%. The Activity [13] was “Active”, the Activity (ECa-109 cell line [14]) was 18.2% and the Activity (HepG2 [15]) was “Dde”. For the same compound, the Activity (ECa-109 cell line [16]) was 11%, the Activity (ECa-109 cell line [17]) was “Dde” and the Activity (ECa-109 cell line [18]) was 2.27%. For the same compound, the viability at 10 µM (HepG2 [19]) was 39.5%, the inhibition [20] was “Active” and the Activity (HepG2 [21]) was 74.51%. For the same compound, the viability at 5 µM (ECa-109 cell line [22]) was 85.8%, the Activity (HepG2 [23]) was 29.9% and the inhibition in vivo at 40 mg/kg (HepG2 [24]) was 47.3%. It also gave an IC50 (HepG2 [25]) of 4.3 µM, a viability at 5 µM (HepG2 [26]) of 76.6% and an Activity (HepG2 [27]) of 51.9%. For the same compound, the Activity (HepG2 [28]) was 19.7%, the Activity (HepG2 [29]) was “Dde” and the Activity (ECa-109 cell line [30]) was 3.56%. The inhibition (HepG2 [31]) was “Dde”, the Activity (HepG2 [32]) was “Active” and the IC50 (ECa-109 cell line [33]) was 3.63 µM. It also gave an Activity (ECa-109 cell line [34]) of 11.2%.
